In article PMC7529893, “Structural basis for substrate recognition and chemical inhibition of oncogenic MAGE ubiquitin ligases” (Nature Communications, 2020):

These molecules were tested against T1, MAGE-A11:PCF11 interaction (GST-MAGE-A11 and FAM-PCF11_4) (Homo sapiens, UniProt P43364) (assay: TR-FRET primary / single point screen at 15 µM). Conditions: single point TR-FRET screening of 797 quinoline compounds against MAGE-A11:PCF11.
T1 construct: GST-MAGE-A11 MHD (human MAGE-A11 MHD amino acid 218-429); made in house; host or cells: E. coli BL21(DE3)
T1 sequence (P43364 218-429): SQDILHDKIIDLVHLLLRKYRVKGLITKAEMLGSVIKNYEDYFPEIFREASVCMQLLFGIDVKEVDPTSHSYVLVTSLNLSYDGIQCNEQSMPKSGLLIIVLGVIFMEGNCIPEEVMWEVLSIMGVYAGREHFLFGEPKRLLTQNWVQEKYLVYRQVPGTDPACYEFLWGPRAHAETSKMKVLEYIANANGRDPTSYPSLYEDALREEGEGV
Type: binding
Protocol: The TR-FRET assay buffer with a formula of 50 mM Tris pH 7.5, 20 mM MgCl2, 0.1 mg/ml BSA and 1 mM DTT was freshly prepared before each experiment. All TR-FRET assays were performed in black 384-well plates with 20 µl/well assay volume in the TR-FRET assay buffer at room temperature (~25 °C). All peptides or compounds were solubilized in DMSO. To test the competitive activity of peptides or compounds against the interaction between GST-MAGE-A11 MHD and FAM-PCF11_4 peptide, 10 µl/well peptide or compound at specified concentration was dispensed into a black 384-well low volume plate, followed by 5 µl/well FAM-PCF11_4 (800 nM), 5 µl/well Tb-anti-GST (20 nM), and GST-MAGE-A11 MHD (20 nM). The assay components in each well was then mixed by shaking the plate on an IKA MTS 2/4 digital microtiter plate shaker (IKA Works; Wilmington, NC, USA) for 1 min. The plate was further centrifuged in an Eppendorf 5810 centrifuge with an A-4-62 swing-bucket rotor (Eppendorf AG, Hamburg, Germany) at 201 g for 30 s. The plate was then incubated for 90 min with a lid to avoid light exposure to the assay components. After incubation, the fluorescent emission signals at 520 nm and 490 nm channels of individual wells were measured with a PHERAstar FS plate reader (BMG Labtech; Durham, NC, USA) by using a 340 nm excitation filter, 100 µs delay time, and 200 µs integration time. The TR-FRET fluorescence emission ratio (TR-FRET signal) for each well was presented as 10,000 × 520 nm/490 nm, which was used directly for curve fitting, or further converted to %Inhibition based on the respective positive and negative controls. The graphic software GraphPad Prism 4.81 (GraphPad Software; La Jolla, CA, USA) was used to generate curves and derive IC50 values of tested peptides or compounds, if applicable. TR-FRET screen for identifying MAGE-A11 small molecule inhibitors was performed as follows. The primary one-concentration screening and subsequent 10 or 20-concentration dose-response tests were accomplished with an automated High Throughput Screening system (HighRes Biosolutions, Beverly, MA)[30]. In the primary screening, 15 µl/well FAM-PCF11_4 (267 nM) was first dispensed with a Multidrop Combi Reagent Dispenser (Thermo Fisher Scientific, Waltham, MA) to black 384-well low-volume assay plates. The plates were spun down with a Velocity11 VSpin microplate centrifuge (Agilent Technologies, Santa Clara, CA). In total, 30 nl/well of 10 mM compound/DMSO solutions, or DMSO alone, were transferred from compound plates (the St. Jude FDA drug and bioactive library, Drug-like library and Lead-like library) or a control plate to the assay plates with a Pin Tool (V&P Scientific, San Diego, CA). The compounds were arrayed in columns 3–12 and columns 15–24 of compound plates. The controls were arrayed in columns 1, 2, 13, and 14 of a compound plate. In all, 5 µl/well Tb-anti-GST (20 nM) and GST-MAGE-A11 (20 nM) or 5 µl/well Tb-anti-GST (20 nM) alone was then dispensed to selected wells with a Multidrop Combi Reagent Dispenser. The final assay volume was 20 µl/well. […] The final tested compound concentration was 15 µM. The final FAM-PCF11_4 concentration was 200 nM and the final Tb-anti-GST concentration was 5 nM. The final GST-MAGE-A11 concentration was 5 nM except for those selected positive control wells in which GST-MAGE-A11 was not presented. The plates were then shaken with a big bear shaker (Big Bear Automation, Santa Clara, California) and spun down with the Velocity11 VSpin microplate centrifuge for 20 s. The plates were then incubated at room temperature in a Liconic incubator (Liconic US, Woburn, MA) for 90 min. The TR-FRET signals for individual wells were measured with a PHERAstar FS plate reader. The %Inhibition of each tested inhibitor was calculated by using Eq. 1. Those inhibitors with %Inhibition >30% in the primary screening were selected for further dose-response test, along with additional newly synthesized compounds. […]
For `O=S(=O)(c1ccccc1)c1cnc2ccc(Cl)cc2c1N1CCN(c2ccccc2)CC1` [SJ000083977], the “percent inhibition (TR-FRET)” value was -15.701.
For `COc1ccc2ncc(S(=O)(=O)c3ccccc3)c(N3CCN(c4ccc(F)cc4)CC3)c2c1` [SJ000083978], the “percent inhibition (TR-FRET)” value was -133.117.
For `CCOc1ccc2ncc(S(=O)(=O)c3ccccc3)c(N3CCN(c4ccc(F)cc4)CC3)c2c1` [SJ000083979], the “percent inhibition (TR-FRET)” value was -181.288.
In the case of `O=S(=O)(c1ccccc1)c1cnc2ccc(F)cc2c1N1CCN(c2ccc(F)cc2)CC1` [SJ000083980], the “percent inhibition (TR-FRET)” value is reported as -11.08.
In the case of `COc1ccc(N2CCN(c3c(S(=O)(=O)c4ccccc4)cnc4ccc(C)cc34)CC2)cc1` [SJ000083981], the “percent inhibition (TR-FRET)” value is reported as -37.966.
For `COc1ccc(N2CCN(c3c(S(=O)(=O)c4ccccc4)cnc4ccc(F)cc34)CC2)cc1` [SJ000083982], the “percent inhibition (TR-FRET)” value was -32.8549.
In the case of `COc1ccc(N2CCN(c3c(S(=O)(=O)c4ccccc4)cnc4ccc(Cl)cc34)CC2)cc1` [SJ000083983], the “percent inhibition (TR-FRET)” value is reported as -17.9415.
For `CN(C)c1cc(NC(=O)CN2CCOCC2)c2ccccc2n1` [SJ000111677], the “percent inhibition (TR-FRET)” value was 4.988.
For `CN(C)c1cc(NC(=O)CNC(C)(C)CC(C)(C)C)c2ccccc2n1` [SJ000111678], the “percent inhibition (TR-FRET)” value was 10.6249.
With `Cc1cc(NC(=O)CN2CCN(C(=O)c3ccco3)CC2)c2ccccc2n1` [SJ000111679] the “percent inhibition (TR-FRET)” value was -1.072.
With `Cc1cc(NC(=O)CN2CCN(C)CC2)c2ccccc2n1` [SJ000111680] the “percent inhibition (TR-FRET)” value was 4.6472.
For `CCc1nc2ccccc2c(NC(=O)CN2CCN(c3ccccc3)CC2)c1C` [SJ000111681], the “percent inhibition (TR-FRET)” value was 6.8942.
For `CCc1nc2ccccc2c(NC(=O)CN2CCCCC2)c1C` [SJ000111682], the “percent inhibition (TR-FRET)” value was 1.593.
With `O=C(CN1CCN(C(=O)c2ccccc2)CC1)Nc1c2c(nc3ccccc13)N(c1cccc(Cl)c1)CC2` [SJ000111683] the “percent inhibition (TR-FRET)” value was -264.327.
In the case of `O=C(CN1CCN(C(c2ccccc2)c2ccccc2)CC1)Nc1c2c(nc3ccccc13)CCC2` [SJ000111684], the “percent inhibition (TR-FRET)” value is reported as 11.85.
`COc1ccc(-c2csc(N3CCN(c4cc(C)nc5ccccc45)CC3)n2)cc1OC` [SJ000114009] was tested, and the “percent inhibition (TR-FRET)” value was -53.4343.
With `Cc1ccc(S(=O)(=O)c2cnc3ccccc3c2N2CCN(c3ccccc3)CC2)cc1` [SJ000117047] the “percent inhibition (TR-FRET)” value was -6.567.
For `COc1ccc2ncc(S(=O)(=O)c3ccc(C)cc3)c(N3CCN(c4ccccc4)CC3)c2c1` [SJ000117048], the “percent inhibition (TR-FRET)” value was -85.5732.
For `CCOc1ccc2ncc(S(=O)(=O)c3ccc(C)cc3)c(N3CCN(c4ccccc4)CC3)c2c1` [SJ000117049], the “percent inhibition (TR-FRET)” value was -45.3213.
For `Cc1ccc(S(=O)(=O)c2cnc3ccc(Cl)cc3c2N2CCN(c3ccccc3)CC2)cc1` [SJ000117050], the “percent inhibition (TR-FRET)” value was -3.321.
With `COc1ccc2ncc(S(=O)(=O)c3ccc(C)c(C)c3)c(N3CCN(c4ccccc4)CC3)c2c1` [SJ000117051] the “percent inhibition (TR-FRET)” value was -52.476.
For `Cc1ccc(S(=O)(=O)c2cnc3ccc(F)cc3c2N2CCN(c3ccccc3)CC2)cc1C` [SJ000117052], the “percent inhibition (TR-FRET)” value was -16.9013.
`CCc1ccc(S(=O)(=O)c2cnc3ccccc3c2N2CCN(c3ccccc3)CC2)cc1` [SJ000117053] was tested, and the “percent inhibition (TR-FRET)” value was -21.2074.
`O=S(=O)(c1ccc(Cl)cc1)c1cnc2ccc(F)cc2c1N1CCN(c2ccccc2)CC1` [SJ000117055] was tested, and the “percent inhibition (TR-FRET)” value was 2.112.
`CCc1ccc2ncc(S(=O)(=O)c3ccc(OC)cc3)c(N3CCN(c4ccccc4)CC3)c2c1` [SJ000117056] was tested, and the “percent inhibition (TR-FRET)” value was -2.791.
With `Cc1ccc(S(=O)(=O)c2cnc3ccccc3c2N2CCN(c3ccc(F)cc3)CC2)cc1` [SJ000117057] the “percent inhibition (TR-FRET)” value was -20.6111.
`Cc1ccc(S(=O)(=O)c2cnc3ccc(C)cc3c2N2CCN(c3ccc(F)cc3)CC2)cc1` [SJ000117058] was tested, and the “percent inhibition (TR-FRET)” value was -4.068.
With `COc1ccc2ncc(S(=O)(=O)c3ccc(C)cc3)c(N3CCN(c4ccc(F)cc4)CC3)c2c1` [SJ000117059] the “percent inhibition (TR-FRET)” value was -118.524.
`CCOc1ccc2ncc(S(=O)(=O)c3ccc(C)cc3)c(N3CCN(c4ccc(F)cc4)CC3)c2c1` [SJ000117060] was tested, and the “percent inhibition (TR-FRET)” value was -11.0715.
In the case of `Cc1ccc(S(=O)(=O)c2cnc3ccc(F)cc3c2N2CCN(c3ccc(F)cc3)CC2)cc1` [SJ000117061], the “percent inhibition (TR-FRET)” value is reported as -70.4952.
In the case of `Cc1ccc(S(=O)(=O)c2cnc3ccccc3c2N2CCN(c3ccc(F)cc3)CC2)cc1C` [SJ000117062], the “percent inhibition (TR-FRET)” value is reported as -54.8642.
For `O=S(=O)(c1ccc(F)cc1)c1cnc2ccc(Cl)cc2c1N1CCN(c2ccc(F)cc2)CC1` [SJ000117063], the “percent inhibition (TR-FRET)” value was -4.205.
For `CCc1ccc2ncc(S(=O)(=O)c3ccc(OC)cc3)c(N3CCN(c4ccc(F)cc4)CC3)c2c1` [SJ000117064], the “percent inhibition (TR-FRET)” value was -9.084.
In the case of `COc1ccccc1N1CCN(c2c(S(=O)(=O)c3ccc(C)cc3)cnc3ccccc23)CC1` [SJ000117065], the “percent inhibition (TR-FRET)” value is reported as -8.687.
For `COc1ccccc1N1CCN(c2c(S(=O)(=O)c3ccc(C)cc3)cnc3ccc(C)cc23)CC1` [SJ000117066], the “percent inhibition (TR-FRET)” value was -92.8867.
For `COc1ccccc1N1CCN(c2c(S(=O)(=O)c3ccc(C)cc3)cnc3ccc(Cl)cc23)CC1` [SJ000117067], the “percent inhibition (TR-FRET)” value was -12.8602.
In the case of `COc1ccccc1N1CCN(c2c(S(=O)(=O)c3ccc(C)c(C)c3)cnc3ccccc23)CC1` [SJ000117068], the “percent inhibition (TR-FRET)” value is reported as -5.706.
With `CCc1ccc(S(=O)(=O)c2cnc3ccccc3c2N2CCN(c3ccccc3OC)CC2)cc1` [SJ000117069] the “percent inhibition (TR-FRET)” value was -47.4423.
With `COc1ccccc1N1CCN(c2c(S(=O)(=O)c3ccc(Cl)cc3)cnc3ccc(C)cc23)CC1` [SJ000117070] the “percent inhibition (TR-FRET)” value was -15.3715.
For `COc1ccc(N2CCN(c3c(S(=O)(=O)c4ccccc4)cnc4ccc(OC)cc34)CC2)cc1` [SJ000117071], the “percent inhibition (TR-FRET)” value was -32.6681.
`COc1ccc(N2CCN(c3c(S(=O)(=O)c4ccc(C)cc4)cnc4ccc(Cl)cc34)CC2)cc1` [SJ000117072] was tested, and the “percent inhibition (TR-FRET)” value was -5.838.
For `COc1ccc(N2CCN(c3c(S(=O)(=O)c4ccc(C)c(C)c4)cnc4ccc(F)cc34)CC2)cc1` [SJ000117073], the “percent inhibition (TR-FRET)” value was -13.2577.
With `CCc1ccc(S(=O)(=O)c2cnc3ccccc3c2N2CCN(c3ccc(OC)cc3)CC2)cc1` [SJ000117074] the “percent inhibition (TR-FRET)” value was -11.204.
With `COc1ccc(N2CCN(c3c(S(=O)(=O)c4ccc(Cl)cc4)cnc4ccc(C)cc34)CC2)cc1` [SJ000117075] the “percent inhibition (TR-FRET)” value was -3.122.
In the case of `COc1ccc2ncc(S(=O)(=O)c3ccc(C)cc3)c(N3CCN(c4ccccc4F)CC3)c2c1` [SJ000117076], the “percent inhibition (TR-FRET)” value is reported as 6.02.
`CCOc1ccc2ncc(S(=O)(=O)c3ccc(C)cc3)c(N3CCN(c4ccccc4F)CC3)c2c1` [SJ000117077] was tested, and the “percent inhibition (TR-FRET)” value was 5.159.

Same assay, conditions: single point TR-FRET screening of quinoline compounds against MAGE-A11:PCF11
For `CCOc1ccc2ncc(S(=O)(=O)c3ccc(Cl)cc3)c(N3CCN(c4ccccc4)CC3)c2c1` [SJ000117054], the “percent inhibition (TR-FRET)” value was -446.911.
